Values of other authors as cited in patent US8133524B1, “Food composition for hemophagous insects” (Tokitae LLC, priority 2010, dated 2012).
Entries after “also recorded” stand apart in the source; their conditions may differ.

Tested on: Aedes aegypti mosquitoes
Conditions: mosquitoes fed with human red blood cells or blood

CC[C@H](C)[C@H](N)C(=O)O [isoleucine]
effect of isoleucine supplementation on egg production / egg-laying: enhanced egg production rate; also recorded: enhanced egg-laying after blood feeding
